According to patent US20200339625A1, “NOVEL RADIOMETAL-BINDING COMPOUNDS FOR DIAGNOSIS OR TREATMENT OF PROSTATE SPECIFIC MEMBRANE ANTIGEN-EXPRESSING CANCER” (PROVINCIAL HEALTH SERVICES AUTHORITY, priority 2017, published 2020):
Each block holds one compound with its values, some of them ahead of it.

Legend:
[1] = test system: mice bearing LNCaP tumor xenografts; experiment: PET/CT imaging of 68Ga-labeled compounds; format: in vivo
Description: 2.17 PET/CT Imaging and Biodistribution
(§1) Imaging and biodistribution experiments were performed using NODSCID 1L2RyKO male mice. Mice were anesthetized by inhalation with 2% isoflurane in oxygen, and implanted subcutaneously with 1×10^7 LNCaP cells behind left shoulder. Mice were imaged or used in biodistribution studies when the tumor grew up to reach 5-8 mm in diameter during 5-6 weeks.
PET imaging experiments were conducted using Siemens Inveon micro PET/CT scanner. Each tumor bearing mouse was injected 6-8 MBq of 68Ga-labeled tracer through the tail vein under anesthesia (2% isoflurane in oxygen). The mice were allowed to recover and roam freely in their cage. After 50 min, the mice were sedated again with 2% isoflurane in oxygen inhalation and positioned in the scanner. A 10-min CT scan was conducted first for localization and attenuation correction after segmentation for reconstructing the PET images. Then, a 10-min static PET imaging was performed to determined uptake in tumor and other organs. The mice were kept warm by a heating pad during acquisition. For imaging studies acquired at 3 h post-injection (p.i.), the mice were placed in the micro PET/CT scanner at 170 min p.i. Then, the CT acquisitions were conducted as described above, a 15-min static PET imaging was performed to determined uptake in tumor and other organs.

[2] = test system: mice bearing PSMA-expressing LNCAP cancer xenografts; experiment: Biodistribution of 68Ga-labeled compounds; format: in vivo
Description: as §1
For biodistribution studies, the mice were injected with the radiotracer as described above. At predetermined time points (1 or 3 h), the mice was anesthetized with 2% isoflurane inhalation, and euthanized by CO2 inhalation. Blood was withdrawn immediately from the heart, and the organs/tissues of interest were collected. The collected organs/tissues were weighed and counted using an automatic gamma counter. The uptake in each organ/tissue was normalized to the injected dose using a standard curve, and expressed as the percentage of the injected dose per gram of tissue (% ID/g).

- change of tumor uptake from 1 h to 3 h post-injection ([1]; PET/CT images): uptake in tumors increases over time
- blood retention (qualitative) ([1]; PET/CT images at 1 h and 3 h post-injection, comparison within the figure): some extent of blood retention
- Adrenal glands uptake ([2]; 1 h post-injection): 4.20 ± 1.21 % ID/g
- Blood uptake ([2]; 1 h post-injection): 26.7 ± 3.02 % ID/g
- Bone uptake ([2]; 1 h post-injection): 1.04 ± 0.26 % ID/g
- Brain uptake ([2]; 1 h post-injection): 0.36 ± 0.06 % ID/g
- Fat uptake ([2]; 1 h post-injection): 2.13 ± 0.57 % ID/g
- Heart uptake ([2]; 1 h post-injection): 6.09 ± 0.97 % ID/g
- Intestine uptake ([2]; 1 h post-injection): 1.64 ± 0.27 % ID/g
- Kidneys uptake ([2]; 1 h post-injection): 14.7 ± 2.13 % ID/g
- Lacrimal uptake ([2]; 1 h post-injection): 0.69 ± 0.26 % ID/g
- Liver uptake ([2]; 1 h post-injection): 3.87 ± 1.00 % ID/g
- Lungs uptake ([2]; 1 h post-injection): 10.2 ± 2.20 % ID/g
- Muscle uptake ([2]; 1 h post-injection): 1.37 ± 0.17 % ID/g
- Pancreas uptake ([2]; 1 h post-injection): 2.00 ± 0.17 % ID/g
- Salivary uptake ([2]; 1 h post-injection): 3.90 ± 0.70 % ID/g
- Seminal uptake ([2]; 1 h post-injection): 1.31 ± 0.38 % ID/g
- Spleen uptake ([2]; 1 h post-injection): 3.13 ± 1.05 % ID/g
- Stomach uptake ([2]; 1 h post-injection): 0.58 ± 0.20 % ID/g
- Tail uptake ([2]; 1 h post-injection): 8.87 ± 4.26 % ID/g
- Testes uptake ([2]; 1 h post-injection): 2.74 ± 0.38 % ID/g
- Thyroid uptake ([2]; 1 h post-injection): 4.95 ± 0.79 % ID/g
- Tumor uptake ([2]; 1 h post-injection): 11.2 ± 3.33 % ID/g
- Tumor:Blood ratio ([2]; 1 h post-injection): 0.42 ± 0.11
- Tumor:Muscle ratio ([2]; 1 h post-injection): 8.04 ± 1.69
- Tumor:kidney ratio ([2]; 1 h post-injection): 0.75 ± 0.17
- Urine uptake ([2]; 1 h post-injection): 3.97 ± 2.56 % ID/g
- Adrenal glands uptake ([2]; 3 h post-injection): 4.46 ± 1.42 % ID/g
- Blood uptake ([2]; 3 h post-injection): 21.2 ± 2.21 % ID/g
- Bone uptake ([2]; 3 h post-injection): 1.54 ± 0.36 % ID/g
- Brain uptake ([2]; 3 h post-injection): 0.30 ± 0.06 % ID/g
- Fat uptake ([2]; 3 h post-injection): 2.47 ± 1.61 % ID/g
- Heart uptake ([2]; 3 h post-injection): 4.85 ± 0.67 % ID/g
- Intestine uptake ([2]; 3 h post-injection): 1.63 ± 0.18 % ID/g
- Kidneys uptake ([2]; 3 h post-injection): 17.5 ± 3.83 % ID/g
- Lacrimal uptake ([2]; 3 h post-injection): 1.44 ± 0.37 % ID/g
- Liver uptake ([2]; 3 h post-injection): 2.80 ± 0.46 % ID/g
- Lungs uptake ([2]; 3 h post-injection): 8.21 ± 1.21 % ID/g
- Muscle uptake ([2]; 3 h post-injection): 1.33 ± 0.24 % ID/g
- Pancreas uptake ([2]; 3 h post-injection): 1.96 ± 0.20 % ID/g
- Salivary uptake ([2]; 3 h post-injection): 3.45 ± 0.40 % ID/g
- Seminal uptake ([2]; 3 h post-injection): 1.15 ± 0.16 % ID/g
- Spleen uptake ([2]; 3 h post-injection): 2.11 ± 0.44 % ID/g
- Stomach uptake ([2]; 3 h post-injection): 0.79 ± 0.23 % ID/g
- Tail uptake ([2]; 3 h post-injection): 6.86 ± 2.42 % ID/g
- Testes uptake ([2]; 3 h post-injection): 3.02 ± 0.80 % ID/g
- Thyroid uptake ([2]; 3 h post-injection): 3.72 ± 0.33 % ID/g
- Tumor uptake ([2]; 3 h post-injection): 14.2 ± 1.99 % ID/g
- Tumor:Blood ratio ([2]; 3 h post-injection): 0.67 ± 0.07
- Tumor:Muscle ratio ([2]; 3 h post-injection): 10.8 ± 1.56
- Tumor:kidney ratio ([2]; 3 h post-injection): 0.83 ± 0.11
- Urine uptake ([2]; 3 h post-injection): 6.15 ± 3.78 % ID/g
Compound: O=C([O-])CN1CCN(CC(=O)[O-])CCN(CC(=O)NCCCC[C@H](NC(=O)CNC(=O)CCCc2ccc(Br)cc2)C(=O)NC[C@H]2CC[C@H](C(=O)N[C@@H](Cc3ccc4ccccc4c3)C(=O)NCCCC[C@H](NC(=O)N[C@@H](CCC(=O)O)C(=O)O)C(=O)O)CC2)CCN(CC(=O)[O-])CC1.[68Ga+3] [^68Ga-HTK03058]

- excretion pathway ([1]; PET/CT images): excreted mainly by the renal pathway
- Adrenal glands uptake ([2]; 1 h post-injection): 2.19 ± 0.76 % ID/g
- Blood uptake ([2]; 1 h post-injection): 1.37 ± 0.23 % ID/g
- Bone uptake ([2]; 1 h post-injection): 0.15 ± 0.06 % ID/g
- Brain uptake ([2]; 1 h post-injection): 0.03 ± 0.01 % ID/g
- Fat uptake ([2]; 1 h post-injection): 0.61 ± 0.09 % ID/g
- Heart uptake ([2]; 1 h post-injection): 0.40 ± 0.07 % ID/g
- Intestine uptake ([2]; 1 h post-injection): 0.33 ± 0.07 % ID/g
- Kidneys uptake ([2]; 1 h post-injection): 81.6 ± 12.6 % ID/g
- Lacrimal uptake ([2]; 1 h post-injection): 0.08 ± 0.03 % ID/g
- Liver uptake ([2]; 1 h post-injection): 0.39 ± 0.09 % ID/g
- Lungs uptake ([2]; 1 h post-injection): 1.39 ± 0.27 % ID/g
- Muscle uptake ([2]; 1 h post-injection): 0.33 ± 0.15 % ID/g
- Pancreas uptake ([2]; 1 h post-injection): 0.47 ± 0.26 % ID/g
- Salivary uptake ([2]; 1 h post-injection): 1.17 ± 0.27 % ID/g
- Seminal uptake ([2]; 1 h post-injection): 0.81 ± 0.94 % ID/g
- Spleen uptake ([2]; 1 h post-injection): 1.12 ± 0.19 % ID/g
- Stomach uptake ([2]; 1 h post-injection): 0.10 ± 0.03 % ID/g
- Tail uptake ([2]; 1 h post-injection): 0.84 ± 0.14 % ID/g
- Testes uptake ([2]; 1 h post-injection): 0.42 ± 0.05 % ID/g
- Thyroid uptake ([2]; 1 h post-injection): 0.58 ± 0.11 % ID/g
- Tumor uptake ([2]; 1 h post-injection): 13.6 ± 2.16 % ID/g
- Tumor:Blood ratio ([2]; 1 h post-injection): 10.1 ± 1.91
- Tumor:Muscle ratio ([2]; 1 h post-injection): 49.2 ± 24.2
- Tumor:kidney ratio ([2]; 1 h post-injection): 0.17 ± 0.02
- Urine uptake ([2]; 1 h post-injection): 349 ± 209 % ID/g
- Adrenal glands uptake ([2]; 3 h post-injection): 0.38 ± 0.06 % ID/g
- Blood uptake ([2]; 3 h post-injection): 0.25 ± 0.04 % ID/g
- Bone uptake ([2]; 3 h post-injection): 0.01 ± 0.01 % ID/g
- Brain uptake ([2]; 3 h post-injection): 0.01 ± 0.00 % ID/g
- Fat uptake ([2]; 3 h post-injection): 0.21 ± 0.01 % ID/g
- Heart uptake ([2]; 3 h post-injection): 0.07 ± 0.02 % ID/g
- Intestine uptake ([2]; 3 h post-injection): 0.19 ± 0.02 % ID/g
- Kidneys uptake ([2]; 3 h post-injection): 22.3 ± 9.97 % ID/g
- Lacrimal uptake ([2]; 3 h post-injection): 0.01 ± 0.01 % ID/g
- Liver uptake ([2]; 3 h post-injection): 0.17 ± 0.02 % ID/g
- Lungs uptake ([2]; 3 h post-injection): 0.28 ± 0.07 % ID/g
- Muscle uptake ([2]; 3 h post-injection): 0.11 ± 0.11 % ID/g
- Pancreas uptake ([2]; 3 h post-injection): 0.09 ± 0.03 % ID/g
- Salivary uptake ([2]; 3 h post-injection): 0.20 ± 0.07 % ID/g
- Seminal uptake ([2]; 3 h post-injection): 0.12 ± 0.08 % ID/g
- Spleen uptake ([2]; 3 h post-injection): 0.24 ± 0.08 % ID/g
- Stomach uptake ([2]; 3 h post-injection): 0.05 ± 0.01 % ID/g
- Tail uptake ([2]; 3 h post-injection): 0.24 ± 0.14 % ID/g
- Testes uptake ([2]; 3 h post-injection): 0.13 ± 0.08 % ID/g
- Thyroid uptake ([2]; 3 h post-injection): 0.16 ± 0.09 % ID/g
- Tumor uptake ([2]; 3 h post-injection): 14.5 ± 2.12 % ID/g
- Tumor:Blood ratio ([2]; 3 h post-injection): 58.1 ± 12.6
- Tumor:Muscle ratio ([2]; 3 h post-injection): 223 ± 122
- Tumor:kidney ratio ([2]; 3 h post-injection): 1.12 ± 1.30
- Urine uptake ([2]; 3 h post-injection): 191 ± 83.1 % ID/g
Compound: O=C([O-])CN1CCN(CC(=O)[O-])CCN(CC(=O)NCCCC[C@H](NC(=O)CNC(=O)CCc2ccccc2)C(=O)NC[C@H]2CC[C@H](C(=O)N[C@@H](Cc3ccc4ccccc4c3)C(=O)NCCCC[C@H](NC(=O)N[C@@H](CCC(=O)O)C(=O)O)C(=O)O)CC2)CCN(CC(=O)[O-])CC1.[68Ga+3] [^68Ga-HTK03082]
